Laboratory results taken from publication PMC9120017, “Inhibition mechanism of the chloride channel TMEM16A by the pore blocker 1PBC” (Nature Communications, 2022).
Like-named read-outs stand apart in the source and are kept apart here.

Biological target: T1, mouse TMEM16A mutant I516A (Mus musculus, UniProt Q8BHY3, I516A)
T1 construct: expressed in transfected cells; host or cells: HEK293T
T1 sequence (Q8BHY3 1-960 I516A): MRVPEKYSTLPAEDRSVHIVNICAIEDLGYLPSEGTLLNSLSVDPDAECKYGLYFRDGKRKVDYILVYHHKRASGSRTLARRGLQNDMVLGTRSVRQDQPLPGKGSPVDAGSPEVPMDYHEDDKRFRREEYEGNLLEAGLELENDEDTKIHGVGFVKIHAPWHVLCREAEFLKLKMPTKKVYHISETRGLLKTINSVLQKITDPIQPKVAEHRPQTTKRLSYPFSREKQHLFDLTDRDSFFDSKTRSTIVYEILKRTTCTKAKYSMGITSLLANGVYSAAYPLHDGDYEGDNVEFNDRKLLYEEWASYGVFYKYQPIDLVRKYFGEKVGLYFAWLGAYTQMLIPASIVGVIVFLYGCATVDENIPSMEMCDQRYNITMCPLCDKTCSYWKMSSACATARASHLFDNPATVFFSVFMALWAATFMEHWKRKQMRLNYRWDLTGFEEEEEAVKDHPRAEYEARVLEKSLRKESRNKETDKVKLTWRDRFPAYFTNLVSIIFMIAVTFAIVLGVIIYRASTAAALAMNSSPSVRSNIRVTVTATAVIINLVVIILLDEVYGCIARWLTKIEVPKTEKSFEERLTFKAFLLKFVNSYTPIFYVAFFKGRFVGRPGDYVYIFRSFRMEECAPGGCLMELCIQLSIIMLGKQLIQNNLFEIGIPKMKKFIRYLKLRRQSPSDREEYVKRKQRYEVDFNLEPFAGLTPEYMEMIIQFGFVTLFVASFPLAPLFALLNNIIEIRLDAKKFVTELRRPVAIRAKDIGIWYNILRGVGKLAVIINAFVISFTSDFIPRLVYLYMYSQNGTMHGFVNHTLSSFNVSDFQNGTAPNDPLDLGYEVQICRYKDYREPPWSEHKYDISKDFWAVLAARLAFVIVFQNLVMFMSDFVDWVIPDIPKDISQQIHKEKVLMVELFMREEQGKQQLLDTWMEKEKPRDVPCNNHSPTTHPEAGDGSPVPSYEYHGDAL
Assay: Inside-out patch recording of 1PBC block, mutant I516A
Format: cell-based
Conditions: for remaining activity at 1 µM: 1PBC 1; for remaining activity at 1 µM / remaining activity at 3 µM / remaining activity at 10 µM / remaining activity at 30 µM / remaining activity at 100 µM: read-out: fraction of unblocked current; for remaining activity at 3 µM: 1PBC 3; for remaining activity at 10 µM: 1PBC 10; for remaining activity at 30 µM: 1PBC 30; for remaining activity at 100 µM: 1PBC 100
Experimental: HEK293T cells (ATCC CRL-1573) were maintained in Dulbecco’s modified Eagle’s medium (DMEM; Sigma-Aldrich) supplemented with 10 U ml^−1 penicillin, 0.1 mg ml^−1 streptomycin (Sigma-Aldrich), 2 mM L-glutamine (Sigma-Aldrich), and 10% FBS (Sigma-Aldrich) in a humidified atmosphere containing 5% CO2 at 37 °C. HEK293S GnTI^− cells (ATCC CRL-3022) were maintained in HyClone HyCell TransFx-H medium (GE Healthcare) supplemented with 10 U ml^−1 penicillin, 0.1 mg ml^−1 streptomycin, 4 mM L-glutamine, 0.15% poloxamer 188 (Sigma-Aldrich), and 1% FBS in an atmosphere containing 5% CO2 at 185 rpm at 37 °C. The ac splice variant of mouse TMEM16A (UniProt ID: Q8BHY3), mouse TMEM16B (UniProt ID: Q8CFW1), or mouse TMEM16F (UniProt ID: Q6P9J9) bearing a 3C cleavage site, a Venus YFP, a Myc tag, and a Streptavidin-binding peptide (SBP) downstream of the open reading frame in a modified pcDNA3.1 vector (Invitrogen) were used as described previously[21],[31]. Mutations were introduced using a modified QuikChange method[58] and were verified by sequencing.
HEK293T cells were transfected with 3–4 μg DNA per 6 cm Petri dish using the calcium phosphate co-precipitation method and were used within 24–96 h after transfection. Recordings were performed on inside-out patches excised from HEK293T cells expressing the construct of interest. Patch pipettes were pulled from borosilicate glass capillaries (O.D. 1.5 mm, I.D. 0.86 mm, Sutter Instrument) and were fire-polished with a microforge (Narishige) before use. Pipette resistance was typically 3–8 MΩ when filled with the recording solutions detailed below. Seal resistance was typically 4 GΩ or higher. Voltage-clamp recordings were made using Axopatch 200B, Digidata 1550, and Clampex 10.7 (Molecular Devices). Analog signals were filtered with the in-built 4-pole Bessel filter at 10 kHz and were digitized at 20 kHz. Solution exchange was achieved using a gravity-fed system through a theta glass pipette mounted on an ultra-fast piezo-driven stepper (Siskiyou). […] All recordings were performed at 20 °C.
A symmetrical ionic condition was used throughout. Stock solution with Ca^2+-EGTA contained 150 mM NaCl, 5.99 mM Ca(OH)2, 5 mM EGTA, and 10 mM HEPES at pH 7.40. Stock solution with EGTA contained 150 mM NaCl, 5 mM EGTA, and 10 mM HEPES at pH 7.40. Free Ca^2+ concentrations were adjusted by mixing the stock solutions at the required ratios calculated using the WEBMAXC program (http://web.stanford.edu/~cpatton/webmaxcS.htm). Patch pipettes were filled with the stock solution with Ca^2+-EGTA, which has a free Ca^2+ concentration of 1 mM. 1PBC (ChemBridge) stock was reconstituted in anhydrous DMSO (Sigma-Aldrich) at 100 mM and stored at −20 °C. Working solutions with 1PBC were prepared by serial dilution. Unless otherwise stated, experiments were performed at a saturating Ca^2+ concentration as shown in Supplementary Table 1 and the primary data were corrected for current rundown as described previously[21],[25].
Concentration-response relations, obtained from the ratio of the I-V plots before and after the application of the blocker, were fitted to the Hill equation,1 I/Imax=1/1+IC50/[blocker]^h where I/Imax is the normalized current responses, IC50 defines the concentration at which inhibition is at its half-maximum, and h is the Hill coefficient.

N#Cc1c(C(F)(F)F)cc(O)n2c1nc1ccccc12 [1PBC]
IC50 (0 mV, 2 µM Ca2+): 5.69 µM
remaining activity at 1 µM (0 mV): 81.6%
remaining activity at 1 µM (20 mV): 79%
remaining activity at 1 µM (40 mV): 76.3%
remaining activity at 1 µM (60 mV): 76.1%
remaining activity at 1 µM (80 mV): 76%
remaining activity at 1 µM (100 mV): 78.2%
remaining activity at 1 µM (120 mV): 80.5%
remaining activity at 1 µM (140 mV): 85%
remaining activity at 1 µM (-20 mV): 84.2%
remaining activity at 1 µM (-40 mV): 86.9%
remaining activity at 1 µM (-60 mV): 90.5%
remaining activity at 1 µM (-80 mV): 93.4%
remaining activity at 1 µM (-100 mV): 94.6%
remaining activity at 1 µM (-120 mV): 96.7%
remaining activity at 1 µM (-140 mV): 99.6%
remaining activity at 3 µM (0 mV): 66.1%
remaining activity at 3 µM (20 mV): 63.1%
remaining activity at 3 µM (40 mV): 60.5%
remaining activity at 3 µM (60 mV): 57.3%
remaining activity at 3 µM (80 mV): 57.5%
remaining activity at 3 µM (100 mV): 58.7%
remaining activity at 3 µM (120 mV): 60.2%
remaining activity at 3 µM (140 mV): 62.8%
remaining activity at 3 µM (-20 mV): 69.1%
remaining activity at 3 µM (-40 mV): 74.1%
remaining activity at 3 µM (-60 mV): 78.3%
remaining activity at 3 µM (-80 mV): 81.5%
remaining activity at 3 µM (-100 mV): 84.3%
remaining activity at 3 µM (-120 mV): 86.9%
remaining activity at 3 µM (-140 mV): 88%
remaining activity at 10 µM (0 mV): 37.2%
remaining activity at 10 µM (20 mV): 33.9%
remaining activity at 10 µM (40 mV): 31.3%
remaining activity at 10 µM (60 mV): 30.4%
remaining activity at 10 µM (80 mV): 30.4%
remaining activity at 10 µM (100 mV): 30.4%
remaining activity at 10 µM (120 mV): 31.9%
remaining activity at 10 µM (140 mV): 35.1%
remaining activity at 10 µM (-20 mV): 40.4%
remaining activity at 10 µM (-40 mV): 43.9%
remaining activity at 10 µM (-60 mV): 48.6%
remaining activity at 10 µM (-80 mV): 50.8%
remaining activity at 10 µM (-100 mV): 55.1%
remaining activity at 10 µM (-120 mV): 58%
remaining activity at 10 µM (-140 mV): 60.3%
remaining activity at 30 µM (0 mV): 16.3%
remaining activity at 30 µM (20 mV): 15%
remaining activity at 30 µM (40 mV): 13.7%
remaining activity at 30 µM (60 mV): 12.5%
remaining activity at 30 µM (80 mV): 12.7%
remaining activity at 30 µM (100 mV): 13.1%
remaining activity at 30 µM (120 mV): 14.6%
remaining activity at 30 µM (140 mV): 16.7%
remaining activity at 30 µM (-20 mV): 17.7%
remaining activity at 30 µM (-40 mV): 19.9%
remaining activity at 30 µM (-60 mV): 22.8%
remaining activity at 30 µM (-80 mV): 25.3%
remaining activity at 30 µM (-100 mV): 28%
remaining activity at 30 µM (-120 mV): 31.5%
remaining activity at 30 µM (-140 mV): 34.4%
remaining activity at 100 µM (0 mV): 6.15%
remaining activity at 100 µM (20 mV): 5.12%
remaining activity at 100 µM (40 mV): 5.16%
remaining activity at 100 µM (60 mV): 5.16%
remaining activity at 100 µM (80 mV): 5.57%
remaining activity at 100 µM (100 mV): 6.35%
remaining activity at 100 µM (120 mV): 6.87%
remaining activity at 100 µM (140 mV): 7.57%
remaining activity at 100 µM (-20 mV): 7.18%
remaining activity at 100 µM (-40 mV): 7.63%
remaining activity at 100 µM (-60 mV): 9.24%
remaining activity at 100 µM (-80 mV): 10.6%
remaining activity at 100 µM (-100 mV): 12.4%
remaining activity at 100 µM (-120 mV): 14.7%
remaining activity at 100 µM (-140 mV): 17.2%
IC50 (20 mV, 2 µM Ca2+): 4.91 µM
IC50 (40 mV, 2 µM Ca2+): 4.32 µM
IC50 (60 mV, 2 µM Ca2+): 3.97 µM
log-fold IC50 (change of mutant vs WT) (80 mV): 0.3402
IC50 (80 mV, 2 µM Ca2+): 4 µM
IC50 (100 mV, 2 µM Ca2+): 4.22 µM
IC50 (120 mV, 2 µM Ca2+): 4.6 µM
IC50 (140 mV, 2 µM Ca2+): 5.41 µM
IC50 (-20 mV, 2 µM Ca2+): 6.57 µM
IC50 (-40 mV, 2 µM Ca2+): 7.87 µM
IC50 (-60 mV, 2 µM Ca2+): 9.65 µM
IC50 (-80 mV, 2 µM Ca2+): 11 µM
IC50 (-100 mV, 2 µM Ca2+): 12.9 µM
IC50 (-120 mV, 2 µM Ca2+): 15 µM
IC50 (-140 mV, 2 µM Ca2+): 17 µM
IC50 (I516A, V 0 mV): 5.69 µM
IC50 (I516A, V 20 mV): 4.91 µM
IC50 (I516A, V 40 mV): 4.32 µM
IC50 (I516A, V 60 mV): 3.97 µM
IC50 (I516A, V 80 mV): 4 µM
IC50 (I516A, V 100 mV): 4.22 µM
IC50 (I516A, V 120 mV): 4.6 µM
IC50 (I516A, V 140 mV): 5.41 µM
IC50 (I516A, V -20 mV): 6.57 µM
IC50 (I516A, V -40 mV): 7.87 µM
IC50 (I516A, V -60 mV): 9.65 µM
IC50 (I516A, V -80 mV): 11 µM
IC50 (I516A, V -100 mV): 12.9 µM
IC50 (I516A, V -120 mV): 15 µM
IC50 (I516A, V -140 mV): 17 µM
